In patent publication US9688695B2, “Imidazothiadiazole and imidazopyrazine derivatives as protease activated receptor 4 (PAR4) inhibitors for treating platelet aggregation” (BRISTOL-MYERS SQUIBB COMPANY, priority 2012, dated 2017):

Biological target: PAR4 (Homo sapiens (Human), UniProt Q96RI0)
Assay: FLIPR assay in PAR4-expressing HEK293 cells (PAR4 antagonist activity, calcium mobilization)
Type: cell-based
Conditions: H-Ala-Phe(4-F)-Pro-Gly-Trp-Leu-Val-Lys-Asn-Gly-NH2-induced calcium mobilization
Description: The FLIPR assay is an exemplary in vitro assay for measuring the activity of the PAR4 antagonists of the present invention. In this assay, intracellular calcium mobilization is induced in PAR4 expressing cells by a PAR4 agonist and calcium mobilization is monitored. See, e.g., Example A.
HEK293 cells stably expressing PAR4 were generated by a standard method of transfection of human […] cDNA expression vector or by RAGE technology from Athersys Inc. (Cleveland, Ohio) and selected based on PAR4 protein expression of mRNA expression. […] These cells express endogenous PAR1 and can elicit calcium signal upon stimulation with PAR1 agonist peptide.
Counter screens for agonist activity and PAR1 antagonist activity were also performed. Briefly, HEK293 EBNA PAR4 clone 20664.1J cells were plated 24 hrs. prior to experiment in 384 well, Poly-D-Lysine coated, black, clear bottom plates (Greiner Bio-One, Monroe, N.C.). Cells were plated at 20,000 cells/well in […] growth medium and incubated at 37° C. with 5% CO2 overnight. At time of assay, media was replaced with 40 μl 1× Hank's Buffered Saline Solution (HBSS) (with 10 mM HEPES) and 20 μl test compound also diluted in 1×HBSS buffer was added at various concentrations and 0.67% DMSO final concentration on the FDSS for agonist measurement. The cells were then incubated for 30 minutes at room temperature followed by addition of 20 μl of agonist peptide for antagonist measurement on the FDSS.
As indicated above, the FLIPR assay, an in vitro assay, measures the PAR4 antagonist activity of compounds tested as described in Example A. The PRP assay, an in vitro assay, measures the PAR4 antagonist assay of the compounds tested in the presence of plasma proteins and thrombin agonist as described in Example C.

Chain of PAR4 (Q96RI0 18-385): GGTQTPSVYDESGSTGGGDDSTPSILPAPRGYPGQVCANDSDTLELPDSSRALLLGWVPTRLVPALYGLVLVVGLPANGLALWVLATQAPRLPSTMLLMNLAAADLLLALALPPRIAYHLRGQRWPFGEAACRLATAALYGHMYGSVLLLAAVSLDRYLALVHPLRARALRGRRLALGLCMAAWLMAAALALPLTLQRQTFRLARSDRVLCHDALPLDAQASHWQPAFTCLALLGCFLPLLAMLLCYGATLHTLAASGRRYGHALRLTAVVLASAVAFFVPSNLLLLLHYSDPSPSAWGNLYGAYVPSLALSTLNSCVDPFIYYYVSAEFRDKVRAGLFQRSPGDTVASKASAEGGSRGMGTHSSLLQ

| Compound | EC50 |
| --- | --- |
| COc1cc(OCc2csc(-c3cccnc3)n2)c2cc(-c3cn4nc(OC)sc4n3)oc2c1 [Example 82] | 0.67 nM |
| COc1cc(OCc2csc(C3CCN(S(C)(=O)=O)CC3)n2)c2cc(-c3cn4nc(OC)sc4n3)oc2c1 [Example 112, 2-Methoxy-6-(6-methoxy-4-((2-(1-(methylsulfonyl)piperidin-4-yl)thiazol-4-yl)methoxy)benzofuran-2-yl)imidazo[2,1-b][1,3,4]thiadiazole] | 0.37 nM |
| COc1cc(OCc2csc(N3CCOCC3)n2)c2cc(-c3cn4nc(C)ccc4n3)oc2c1 [Example 215] | 3.3 nM |
| COc1nn2cc(-c3cc4c(OCc5csc(-c6cccc(C)c6)n5)cc(Cl)cc4o3)nc2s1 [Example 189, 6-(6-Chloro-4-((2-(m-tolyl)thiazol-4-yl)methoxy)benzofuran-2-yl)-2-methoxyimidazo[2,1-b][1,3,4]thiadiazole] | 1.3 nM |
| COc1cc(OCc2csc(-c3ccc(C(=O)N(C)C4COC4)cc3)n2)c2cc(-c3cn4nc(OC)sc4n3)oc2c1 [Example 298] | 0.99 nM |
| CCN(CC1CC1)C(=O)c1ccc(-c2nc(COc3cc(OC)cc4oc(-c5cn6nc(OC)sc6n5)cc34)cs2)cc1 [Example 312] | 0.77 nM |
| COc1cc(OCc2nc(C3CCOCC3)sc2C)c2cc(-c3cn4nc(OC)sc4n3)oc2c1 [Example 95, 2-Methoxy-6-(6-methoxy-4-((5-methyl-2-(tetrahydro-2H-pyran-4-yl)thiazol-4-yl)methoxy)benzofuran-2-yl)imidazo[2,1-b][1,3,4]thiadiazole] | 0.83 nM |
| COc1cc(OCc2csc(C3(NC(=O)CN(C)C)CCOCC3)n2)c2cc(-c3cn4nc(OC)sc4n3)oc2c1 [Example 174, 2-(Dimethylamino)-N-(4-(4-(((6-methoxy-2-(2-methoxyimidazo[2,1-b][1,3,4]thiadiazol-6-yl)benzofuran-4-yl)oxy)methyl)-thiazol-2-yl)tetrahydro-2H-pyran-4-yl)acetamide] | 24 nM |
| COc1cc(OCc2csc(CCC3CC3)n2)c2cc(-c3cn4nc(OC)sc4n3)oc2c1 [Example 60] | 0.38 nM |
| COc1cc(OCc2csc(-c3ccc(C(=O)NC(C)(C)C)cc3)n2)c2cc(-c3cn4nc(OC)sc4n3)oc2c1 [Example 41, N-(tert-Butyl)-4-(4-(((6-methoxy-2-(2-methoxyimidazo[2,1-b][1,3,4]thiadiazol-6-yl)benzofuran-4-yl)oxy)methyl)thiazol-2-yl)benzamide] | 0.9 nM |
| COc1cc(OCc2csc(N3CCC4(CC3)CC4)n2)c2cc(-c3cn4nc(C)ccc4n3)oc2c1 [Example 278] | 1.4 nM |
| COc1cc(OCc2csc(-c3ccc(C#N)cc3)n2)c2cc(-c3cn4nc(C)ccc4n3)oc2c1 [Example 224] | 0.75 nM |
| COc1cc(OCc2csc(N3CC[C@@H](O)C3)n2)c2cc(-c3cn4nc(C)ccc4n3)oc2c1 [Example 253] | 9.7 nM |
| COc1nn2cc(-c3cc4c(OCc5csc(-c6ccc(Cl)cc6)n5)cc(Cl)cc4o3)nc2s1 [Example 188, 6-(6-Chloro-4-((2-(4-chlorophenyl)thiazol-4-yl)methoxy)benzofuran-2-yl)-2-methoxyimidazo[2,1-b][1,3,4]thiadiazole] | 0.85 nM |
| COc1cc(OCc2csc(-c3ccc(C)nc3)n2)c2cc(-c3cn4nc(C)ccc4n3)oc2c1 [Example 231] | 1.8 nM |
| COc1cc(OCc2csc(-c3ccc(C(=O)NC(C)C)cc3)n2)c2cc(-c3cn4nc(OC)sc4n3)oc2c1 [Example 304] | 0.88 nM |
| CCN(C(=O)c1ccc(-c2nc(COc3cc(OC)cc4oc(-c5cn6nc(OC)sc6n5)cc34)cs2)cc1)C(C)C [Example 287] | 0.48 nM |
| COc1cc(OCc2csc(-c3cccc(OC(C)=O)c3)n2)c2cc(-c3cn4nc(OC)sc4n3)oc2c1 [Example 62] | 0.48 nM |
| COc1cc(OCc2nc(-c3ccc(C(=O)O)cc3)sc2C)c2cc(-c3cn4nc(OC)sc4n3)oc2c1 [Example 46, 4-(4-(((6-Methoxy-2-(2-methoxyimidazo[2,1-b][1,3,4]thiadiazol-6-yl)benzofuran-4-yl)oxy)methyl)-5-methylthiazol-2-yl)benzoic acid] | 2.4 nM |

| Compound | EC50 |
| --- | --- |
| COc1cc(OCc2csc(C3CCOc4ccccc43)n2)c2cc(-c3cn4nc(OC)sc4n3)oc2c1 (centres unmarked) [Example 168, 6-(4-((2-(Chroman-4-yl)thiazol-4-yl)methoxy)-6-methoxybenzofuran-2-yl)-2-methoxyimidazo[2,1-b][1,3,4]thiadiazole] | 0.28 nM |
| COc1cc(OCc2csc(C(C)(C)c3ccc(Cl)cc3)n2)c2cc(-c3cn4nc(OC)sc4n3)oc2c1 [Example 176, 6-(4-((2-(2-(4-Chlorophenyl)propan-2-yl)thiazol-4-yl)methoxy)-6-methoxybenzofuran-2-yl)-2-methoxyimidazo[2,1-b][1,3,4]thiadiazole] | 1.3 nM |
| COc1cc(OCc2csc(-c3ccc(Cl)cc3)n2)c2cc(-c3cn4nc(OC)sc4n3)oc2c1 [Example 27] | 1.6 nM |
| COc1cncc(-c2nc(COc3cc(OC)cc4oc(-c5cn6nc(OC)sc6n5)cc34)cs2)c1 [Example 79] | 2.6 nM |
| COc1cc(OCc2csc(C3(O)CCC(=O)CC3)n2)c2cc(-c3cn4nc(OC)sc4n3)oc2c1 [Example 128, 4-Hydroxy-4-(4-(((6-methoxy-2-(2-methoxyimidazo[2,1-b][1,3,4]thiadiazol-6-yl)benzofuran-4-yl)oxy)methyl)thiazol-2-yl)cyclohexan-one] | 0.35 nM |
| COc1cc(OCc2csc(N3CC[S+]([O-])CC3)n2)c2cc(-c3cn4nc(OC)sc4n3)oc2c1 [Example 55] | 0.79 nM |
| CCN(CCC#N)C(=O)c1ccc(-c2nc(COc3cc(F)cc4oc(-c5cn6nc(OC)sc6n5)cc34)cs2)cc1 [Example 180, N-(2-Cyanoethyl)-N-ethyl-4-(4-(((6-fluoro-2-(2-methoxyimidazo[2,1-b][1,3,4]thiadiazol-6-yl)benzofuran-4-yl)oxy)methyl)thiazol-2-yl)benzamide] | 0.47 nM |
| COc1cc(OCc2csc(-c3cccc(C(F)(F)F)c3)n2)c2cc(-c3cn4nc(OC)sc4n3)oc2c1 [Example 17] | 1.1 nM |
| COc1cc(OCc2csc(C3(N[S@+]([O-])C(C)(C)C)CCOCC3)n2)c2cc(-c3cn4nc(OC)sc4n3)oc2c1 [Example 170, (R)-N-(4-(4-(((6-Methoxy-2-(2-methoxyimidazo[2,1-b][1,3,4]thiadiazol-6-yl)benzofuran-4-yl)oxy)methyl)thiazol-2-yl)tetrahydro-2H-pyran-4-yl)-2-methylpropane-2-sulfinamide] | 1.7 nM |
| COc1cc(OCc2csc(-c3ccc(C(F)(F)F)cc3)n2)c2cc(-c3cn4nc(C)ccc4n3)oc2c1 [Example 208, 4-(((6-Methoxy-2-(6-methylimidazo[1,2-b]pyridazin-2-yl)benzofuran-4-yl)oxy)methyl)-2-(4-(trifluoromethyl)phenyl)thiazole] | 0.82 nM |
| COc1cc(OCc2csc(N3CCSCC3)n2)c2cc(-c3cn4nc(C)ccc4n3)oc2c1 [Example 258] | 0.81 nM |
| COc1cc(OCc2csc(-c3ccc(S(C)(=O)=O)cc3)n2)c2cc(-c3cn4nc(C)ccc4n3)oc2c1 [Example 234] | 0.66 nM |
| COc1cc(OCc2nc(N3CCOCC3)sc2CO)c2cc(-c3cn4nc(OC)sc4n3)oc2c1 [Example 89, (4-(((6-Methoxy-2-(2-methoxyimidazo[2,1-b][1,3,4]thiadiazol-6-yl)benzofuran-4-yl)oxy)methyl)-2-morpholinothiazol-5-yl)methanol] | 0.69 nM |
| COc1cc(OCc2csc(C3CCN(S(=O)(=O)C(C)C)CC3)n2)c2cc(-c3cn4nc(OC)sc4n3)oc2c1 [Example 111, 6-(4-((2-(1-(Isopropylsulfonyl)piperidin-4-yl)thiazol-4-yl)methoxy)-6-methoxybenzofuran-2-yl)-2-methoxyimidazo[2,1-b][1,3,4]thiadiazole] | 0.86 nM |
| COc1cc(OCc2csc(-c3ccccc3F)n2)c2cc(-c3cn4nc(OC)sc4n3)oc2c1 [Example 26] | 1.8 nM |
| CCC(O)(c1nc(COc2cc(OC)cc3oc(-c4cn5nc(OC)sc5n4)cc23)cs1)C(F)(F)F (centres unmarked) [Example 138] | 0.82 nM |
| COc1cc(OCc2csc(C3CCC(F)(F)CC3)n2)c2cc(-c3cn4nc(C)ccc4n3)oc2c1 [Example 239] | 0.58 nM |
| COc1cc(OCc2csc(C3(O)CCC(C(=O)O)CC3)n2)c2cc(-c3cn4nc(OC)sc4n3)oc2c1 (centres unmarked) [Example 150, 4-Hydroxy-4-(4-(((6-methoxy-2-(2-methoxyimidazo[2,1-b][1,3,4]thiadiazol-6-yl)benzofuran-4-yl)oxy)methyl)thiazol-2-yl)cyclohexanecarboxylic acid] | 0.92 nM |
| COc1nn2cc(-c3cc4c(OCc5csc(-c6ccc(C(=O)NCC(F)(F)F)cc6)n5)cc(F)cc4o3)nc2s1 [Example 181, 4-(4-(((6-Fluoro-2-(2-methoxyimidazo[2,1-b][1,3,4]thiadiazol-6-yl)benzofuran-4-yl)oxy)methyl)thiazol-2-yl)-N-(2,2,2-trifluoroethyl)benzamide] | 0.72 nM |
